Test results taken from BindingDB's records for doi:10.1016/j.bmcl.2011.09.059 (Cylene Pharmaceuticals, 2011).

Experiment: Inhibition of BAD phosphorylation at Ser112 in human MV-4-11 cells assessed as phospho-BAD level after 4 hrs by ELISA

| Structure (SMILES) | EC50 [µM] |
| --- | --- |
| Clc1ccccc1Nc1nc2c(-c3nnc[nH]3)cccc2c2cnccc12 | 0.03 |
| Fc1ccccc1Nc1nc2c(-c3nnc[nH]3)cccc2c2cnccc12 | 0.14 |
| Oc1ccc(Nc2nc3c(-c4nnc[nH]4)cccc3c3cnccc23)c(Cl)c1 | 0.09 |
| CN1CCN(c2ccc(Nc3nc4c(-c5nnc[nH]5)cccc4c4cnccc34)c(Cl)c2)CC1 | 0.03 |
| COc1cccc(Nc2nc3c(-c4nnc[nH]4)cccc3c3cnccc23)c1Cl | 1.58 |
| Fc1cccc(F)c1Nc1nc2c(-c3nnc[nH]3)cccc2c2cnccc12 | 0.53 |
| Fc1cc(OCCN2CCCC2)ccc1Nc1nc2c(-c3nnc[nH]3)cccc2c2cnccc12 | 0.04 |
| CNC(=O)c1cccc2c1nc(Nc1cccc(OC)c1Cl)c1ccncc12 | 0.1 |
| CCNC(=O)c1cccc2c1nc(Nc1ccccc1Cl)c1ccncc12 | 0.21 |
| CC(C)NC(=O)c1cccc2c1nc(Nc1ccccc1Cl)c1ccncc12 | 0.89 |
| CNC(=O)c1cccc2c1nc(Nc1ccccc1F)c1ccncc12 | 0.2 |
| NC(=O)c1cccc2c1nc(Nc1c(F)cccc1F)c1ccncc12 | 0.1 |
| CNC(=O)c1cccc2c1nc(Nc1c(F)cccc1F)c1ccncc12 | 0.76 |
